Source: BindingDB's records for doi:10.7270/Q2TB15BF (Nmmlsc, 2009)

Biological target: Cell division control protein 42 homolog (Homo sapiens, UniProt P60953)
Assay: inhibition of fluorescent GTP binding to Cdc42 wt – biochemical, bead-based multiplex flow cytometry, additional SAR set, SAR follow-up (AID 2022)

Cell division control protein 42 homolog, sequence (P60953 whole entry): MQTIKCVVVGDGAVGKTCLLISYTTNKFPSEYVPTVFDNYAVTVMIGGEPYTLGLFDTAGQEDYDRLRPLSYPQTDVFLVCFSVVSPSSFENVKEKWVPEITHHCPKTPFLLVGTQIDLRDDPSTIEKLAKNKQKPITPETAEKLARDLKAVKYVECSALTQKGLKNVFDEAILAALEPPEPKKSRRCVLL

Structure (SMILES) | Ki [nM]
O=C1N=c2c(F)cccc2=C1c1[nH]c2ccccc2c1NO [7-fluoro-3-[3-(hydroxyamino)-1H-indol-2-yl]-2-indolone] | 5930
O=C1Nc2c(Cl)cccc2C1=C1Nc2ccccc2C1=O | 10
